Entries after “also recorded” stand apart in the source; their conditions may differ.
Legend:
[1] = system: Ramos-RR1; experiment: DNA fragmentation (PI) apoptosis assay, Ramos-RR1
Procedure: (§1) Percentage of apoptotic cells was determined by evaluation of propidium iodide (PI) stained preparations of cells using an EpicXL flow-cytometer. Cellular debris was excluded from analysis by raising the forward scatter threshold, and DNA content of the intact nuclei was recorded on a logarithmic scale (Nicoletti, I. et al., J. Immunol. Methods, 139:271-9 (1991)). Percent apoptosis is represented as percentage of hypodiploid cells accumulated at sub-G0 phase of cell cycle.
(§2) Cells were left either untreated or pre-treated with DHMEQ (36), bortezomib (Goy, A. et al., Clin. Lymphoma, 4:230-7 (2004)) and PD098059 (Alessi, D. et al., J. Biol. Chem., 270:27489-94 (1995)). Escalating concentrations of various drugs were then added and the percentage of apoptosis was measured.

[2] = system: Daudi-RR1; experiment: DNA fragmentation (PI) apoptosis assay, Daudi-RR1
Procedure: as §1, §2

[3] = system: NF-κB and AP-1 DBA; experiment: EMSA in RR clones; format: cell-based, human
Procedure: FIG. 8. […] A. Total cell lysates (40 μg) were subjected to western blot analysis using phospho-specific Abs for various components of the NF-κB and ERK1/2 pathways. B. The kinase activity of the IKK complex using IκB-α peptide (aa 1-50 including S^32/36) and ERK1/2 using MAPK kinase substrates 4 (aa 172-192) using immune-complex kinase assay. C. […] 10 μg of nuclear lysates were subjected to EMSA (n=2) (19, 20).
The DBAs were evaluated using biotin-labeled oligonucleotide AP-1 (5′-[…]-3′) (Lee, W et al., Cell, 49:741-52 (1987)) and NF-κB (5′-[…] […]-3′) probes (Harada, H. et al., Mol. Cell Biol., 14:1500-9 (1994)) using EMSA kit (Panomics, Inc., Redwood City, Calif.) according to manufacturer's instructions. 10 μg of nuclear extracts were subjected to […] 5% PAGE and developed (Jazirehi, A. et al., Cancer Research, 64:7117-26 (2004); Jazirehi, A. et al., Cancer Research, 65:264-76 (2005)).
Next, alterations in the DBA of NF-κB and AP-1 in the clones were examined.

[4] = system: 2F7, Ramos and Daudi wild type and RR clones; experiment: TRAIL-mediated apoptosis in B-NHL cell lines and RR clones (DNA fragmentation); format: cell-based, human; settings: inhibitor pretreatment 2 h, then TRAIL 18 h; rituximab-sensitive and -resistant cells
Excerpt: Patients with B-NHL respond initially to conventional chemotherapy and/or to immunotherapy with rituximab (alone or in combination with chemotherapy). However, patients develop resistance to these modalities and novel approaches are needed. TRAIL is a cytotoxic molecule that exerts selective anti-tumor cytotoxic activity with minimal toxicity to normal tissues. Further, TRAIL or agonist monoclonal antibody (mAb) to TRAIL receptors, DR4 and DR5, are currently being tested clinically. The present study investigated the sensitivity of B-NHL cell lines to TRAIL-mediated apoptosis using the AIDS-related NHL (ARL) B-cell line, 2F7, and the B-NHL cell lines, Ramos and Daudi. Also, to recapitulate various aspects of acquired rituximab-resistance, we have generated rituximab-resistant (RR) clones from the parental wild type (wt) cells. […] We then examined means to reverse […] resistance. We and others have reported that inhibition of NFκB activity can sensitize TRAIL-resistant tumor cells to TRAIL-induced apoptosis. […] Both the rituximab-sensitive and rituximab-resistant tumor cells were sensitized by these inhibitors, though higher concentrations were required for sensitization of the RR clones. […] Based on the findings, patients with resistant B-NHL can be treated with combination of TRAIL/anti-DR4 or DR5 mAb and NFκB inhibitors. Alternatively, these patients can be treated with agents that up-regulate TRAIL expression on host effectors (e.g., T cells, NK cells) in combination with NFκB inhibitors.

[5] = system: 2F7RR1 clone; experiment: Chemotherapeutic drug-induced apoptosis in 2F7RR1; format: cell-based
Excerpt: (§3) Accordingly, we examined whether inhibition of Bcl-2 in 2F7RR1 can reverse chemoresistance. Since Bcl-2 is under the transcriptional regulation of NFκB, we examined the effect of the NF-κB inhibitors Bortezomib and DHMEQ (Kikuchi, et al., Cancer Research, 63:107 (2003)).
(§4) The mechanism by which B-NHL patients resist treatment is not known. […] We examined the effect of various chemical inhibitors of this signaling pathway on chemosensitization.

[6] = system: p38MAPK/NF-κB/YY1/STAT3 signaling pathways, Bcl-2; experiment: Molecular analysis of signaling in 2F7RR1; format: cell-based; settings: 2F7-RR1
Excerpt: as §3, §4

[7] = system: RR clones; experiment: DNA fragmentation apoptosis assay, RR clones (pooled statements); format: cell-based, human; settings: drugs e.g. Paclitaxel, Vincristine, VP-16, CDDP, Adriamycin
Procedure: Thus, we examined if such sensitizing agents can reverse the resistance in the RR clones.
as §1, §2

[8] = system: PI3K/Akt signaling pathway in Ramos; experiment: Western blot of phosphorylated and unphosphorylated Akt / NF-κB pathway proteins in Ramos; format: cell-based, human; settings: rituximab 138 nM or (Fab′)2, 20 h
Procedure: After stimulation, cells (2×10^6 cells) were collected and resuspended with lysis buffer (20 mM Tris-HCl (pH 8.0), 2 mM EDTA, 3% NP-40, 100 mM NaCt, 50 mM NaF, 1 uM PMSF, 1 uM VO4, 5 ug/ml aprotinin, 5 ug/ml leupeptin). After 30 min of incubation on ice, samples were centrifuged at 10,000×g, for 10 min at 4° C. to remove cellular debris. […] The membranes were blocked for 30 min with 5% non-fat dry milk diluted in 0.05% Tween-20 Tris-buffered saline at room temperature and incubated overnight with the primary antibodies. After incubation with the primary antibody against Akt (1:300), Bad, PDK1, (1:500), phospho-specific antibodies against phospho-Akt (Ser 473, Thr 308) (1:300), phospho-PDK1 and phospho-Bad (Serl 36) (both 1:300) for overnight, the membranes were washed and incubated with HRP-coupled secondary antibodies (Cell Signaling, MA, USA). Immunoreactive bands were detected using an enhanced chemiluminiscence system (Amersham Pharmacia Biotech, UK).

[9] = system: Ramos cells; experiment: PI flow cytometry apoptosis, chemosensitization of Ramos; format: cell-based, human; settings: pretreatment then CDDP 15 μg/ml 24 h
Procedure: The cells were then washed and fresh medium was added and seeded into 12 well plates (Costar, Cambridge, Mass.). Indicated concentrations of drugs (CDDP, ADR) were then added, and the cells were incubated for another 24 h for maximal cytotoxicity. At the end of the incubation period, the cells were harvested and subjected to propidium iodide (PI) (Molecular Probes, Leiden, Netherlands) staining according to the specifications of the PI staining kit (Roche Diagnostics Corporation, Indianapolis, Ind.) and evaluated by flow cytometric analysis. LY294002 was dissolved in DMSO (Sigma-Aldrich) and added up to 50 uM.
DNA fragmentation was detected by flow cytometric analysis after propidium iodide staining (Alas, S. et al., Cancer Res., 61:5137-44 (2001)). Cells with fragmented DNA were considered as apoptotic. […] Fluorescence was measured on a FACScan flow cytometer (BD Immunocytometry Systems) within 1 h. […] Cellular debris were excluded from analysis by raising the forward scatter threshold, and the DNA content of the intact nuclei was recorded on a logarithmic scale. […]
Ramos B-NHL cells were cultured in 1 ml of Opti-MEM medium without antibiotics and FBS. […] To determine Akt siRNA-induced sensitization to CDDP-induced apoptosis, following transfection the cells were treated with CDDP for 24 h, then fixed and permeabilized for PI staining, and analyzed by flow cytometry as described above.

Compound	enhanced cytotoxicity of drugs by inhibitor [1]	apoptosis, DHMEQ alone ([1]; Ramos-RR1, DHMEQ 20 μg/ml) [%]	enhanced cytotoxicity of drugs by inhibitor [2]	apoptosis, DHMEQ alone ([2]; Daudi-RR1, DHMEQ 20 μg/ml) [%]	NF-κB and AP-1 DBA (EMSA) [3]	sensitization to TRAIL-induced apoptosis [4]	chemosensitization to drug-induced apoptosis (taxol, vincristine, ADR, CDDP, VP16) [5]	effect on NF-kB, YY1 and Bcl-2 expression [6]	sensitization of RR clones to various chemotherapeutic drugs [7]	effect on p-Akt (western) [8]	sensitization to CDDP-induced apoptosis [9]
O=C(NC1=CC(=O)[C@H]2O[C@H]2[C@H]1O)c1ccccc1O [DHMEQ, dehydroxymethylepoxyquinomicin]	2.3-5.1 folds	10.1±2.1	1.4-3.3 folds	4.9±1.6	preferentially reduced	significant augmentation of apoptosis and synergy was achieved	reversal of resistance; also recorded: significantly sensitized	inhibition of NF-kB, YY1 and downregulated Bcl-2 expression	sensitized	–	–
Rituximab (Fab′)2: Fc-devoid Rituximab (Fab′)2	–	–	–	–	–	–	–	–	–	also inhibited p-Akt like rituximab	sensitize the cells significantly
